Experimental data as given in patent publication US20210317112A1, “HETEROCYCLIC COMPOUNDS AS PESTICIDES” (Bayer Aktiengesellschaft, priority 2017, published 2021).
Like-named read-outs stand apart in the source and are kept apart here.

How the values were obtained:
Format in all cases: in vivo
[1] = system: green peach aphid (Myzus persicae); experiment: whole plant or invertebrate; conditions: po, 120 h, read-out: mortality in %
Method: Myzus persicae—Oral Test Solvent: 100 parts by weight acetone
To produce a suitable preparation of active compound, 1 part by weight of active compound is mixed with the stated amount of solvent, and the concentrate is diluted with water to the desired concentration. 50 μl compound solution is filled in microtiter plates and 150 μl IPL41 insect medium (33%+15% sugar) is added to obtain a total volume of 200 μper well. Afterwards the plates are sealed with parafilm through which a mixed population of the green peach aphid (Myzus persicae) can suck on the compound preparation.
(§1) After 5 days mortality in % is determined. 100% means all aphids have been killed and 0% means none of the aphids have been killed.

[2] = system: mustard beetle larvae (Phaedon cochleariae); experiment: Phaedon cochleariae spray test; conditions: in Brassica rapa, foliar, 168 h, read-out: mortality in %
Method: Phaedon cochleariae—Spray Test Solvent: 78.0 parts by weight of acetone • • 1.5 parts by weight of dimethylformamide Emulsifier: alkylarylpolyglycol ether
(§2) To produce a suitable preparation of active compound, 1 part by weight of active compound is mixed with the stated amount of solvents and is diluted with water, containing an emulsifier concentration of 1000 ppm, to the desired concentration. Further test concentrations are prepared by dilution with emulsifier containing water.
Chinese cabbage (Brassica pekinensis) leaf disks are sprayed with a preparation of the active ingredient of the desired concentration. Once dry, the leaf disks are infested with mustard beetle larvae (Phaedon cochleariae).
After 7 days mortality in % is determined. 100% means all beetle larvae have been killed and 0% means none of the beetle larvae have been killed.

[3] = system: southern green stink bug (Nezara viridula); experiment: whole plant or invertebrate; conditions: in Hordeum vulgare, 96 h, read-out: mortality in %
Method: Nezara viridula—Spray Test Solvent: 52.5 parts by weight of acetone • 7 parts by weight of dimethylformamide Emulsifier: alkylaryl polyglycolether
(§3) To produce a suitable preparation of active compound, 1 part by weight of active compound is mixed with the stated amount of solvent, and the concentrate is diluted with water, containing an emulsifier concentration of 1000 ppm, to the desired concentration. Ammonium salt and/or penetration enhancer in a dosage of 1000 ppm are added to the desired concentration if necessary.
(§4) Barley plants (Hordeum vulgare) infested with larvae of the southern green stink bug (Nezara viridula) are sprayed with a test solution containing the desired concentration of the active ingredient.
(§5) After 4 days mortality in % is determined. 100% means all the stink bugs have been killed; 0% means none of the stink bugs have been killed.

[4] = system: southern green stink bug (Nezara viridula); experiment: whole plant or invertebrate; conditions: in Hordeum vulgare, 96 h, read-out: mortality in %; remark: listed apart in the source
Method: Nezara viridula—Spray Test Solvent: 78.0 parts by weight of acetone • • 1.5 parts by weight of dimethylformamide Emulsifier: alkylarylpolyglycol ether
as §2, with “solvent,” for “solvents”, “and the concentrate” for “and”
as §4, §5

[5] = system: brown planthopper (Nilaparvata lugens); experiment: Nilaparvata lugens spray test (solvent 78.0 acetone / 1.5 DMF); conditions: 96 h, application rate 500 g/ha, rice plants, after 4 days
Method: Nilaparvata lugens—Spray Test Solvent: 78.0 parts by weight of acetone • • 1.5 parts by weight of dimethylformamide Emulsifier: alkylarylpolyglycol ether
as §2
Rice plants (Oryza sativa) are sprayed with a preparation of the active ingredient of the desired concentration and the plants are infested with the brown planthopper (Nilaparvata lugens).
(§6) After 4 days mortality in % is determined. 100% means all planthoppers have been killed and 0% means none of the planthoppers have been killed.

[6] = system: two spotted spidermite (Tetranychus urticae); experiment: whole plant or invertebrate; conditions: in Phaseolus vulgaris, foliar, 144 h, read-out: mortality in %
Method: Tetranychus urticae—Spray Test OP-Resistant Solvent: 78.0 parts by weight acetone • 1.5 parts by weight dimethylformamide Emulsifier: alkylarylpolyglycol ether
as §2
French bean (Phaseolus vulgaris) leaf disks infected with all instars of the two spotted spidermite (Tetranychus urticae), are sprayed with a preparation of the active ingredient of the desired concentration.
After 6 days mortality in % is determined. 100% means all spider mites have been killed and 0% means none of the spider mites have been killed.

[7] = system: green peach aphid (Myzus persicae); experiment: Myzus persicae spray test; conditions: in Brassica rapa, foliar, 120 h, read-out: mortality in %
Method: Myzus persicae—spray test Solvent: 78.0 parts by weight acetone • 1.5 parts by weight dimethylformamide Emulsifier: alkylarylpolyglycol ether
as §2
Chinese cabbage (Brassica pekinensis) leaf disks infected with all instars of the green peach aphid (Myzus persicae), are sprayed with a preparation of the active ingredient of the desired concentration.
as §1

[8] = system: brown planthopper (Nilaparvata lugens); experiment: Nilaparvata lugens spray test (solvent 52.5 acetone / 7 DMF); conditions: 96 h, application rate 500 g/ha, rice plants, after 4 days
Method: Nilaparvata lugens—Spray Test Solvent: 52.5 parts by weight of acetone • 7 parts by weight of dimethylformamide Emulsifier: alkylaryl polyglycolether
as §3, with “solvents” for “solvent,”, “and” for “and the concentrate”, “concentration. Further test concentrations are prepared by dilution with emulsifier containing water.” for “concentration.”
Rice plants (Oryza sativa) are treated by being sprayed with the desired concentration of the active compound and are infested with larvae of the brown planthopper (Nilaparvata lugens).
as §6

Row | SMILES | mortality at 20 ppm [1] [%] | mortality at 500 g/ha [2] [%] | mortality at 100 g/ha [3] [%] | mortality at 500 g/ha [3] [%] | mortality at 500 g/ha [4] [%] | mortality at 500 g/ha [5] [%] | mortality at 100 g/ha [6] [%] | mortality at 500 g/ha [6] [%] | mortality at 100 g/ha [2] [%] | mortality at 500 g/ha [7] [%] | mortality at 500 g/ha [8] [%]
1 | N#Cc1c(-c2c(F)cccc2F)nsc1NC(=O)c1cccnc1C(F)(F)F [Compound I-2-1, N-[4-Cyano-3-(2,6-difluorophenyl)-1,2-thiazol-5-yl]-2-(trifluoromethyl)nicotinamide] | 90 | 100 | 100 | 100 | 100 |  |  |  |  |  | 
2 | O=C(Nc1nc(-c2ccccc2C(F)(F)F)no1)c1cccnc1C(F)(F)F [Compound I-1-8, 2-(trifluoromethyl)-N-{3-[2-(trifluoromethyl)phenyl]-1,2,4-oxadiazol-5-yl}nicotinamide] |  | 100 |  |  | 90 | 100 | 100 | 100 |  |  | 
3 | N#Cc1c(-c2ccccc2C(F)(F)F)nsc1NC(=O)c1cccnc1Cl [Compound I-2-7, 2-Chloro-N-{4-cyano-3-[2-(trifluoromethyl)phenyl]-1,2-thiazol-5-yl}nicotinamide] |  | 100 |  | 100 |  |  | 90 | 90 |  |  | 
4 | O=C(Nc1nc(-c2c(F)ccc(Br)c2F)no1)c1cccnc1C(F)(F)F [Compound I-1-12, N-[3-(3-bromo-2,6-difluorophenyl)-1,2,4-oxadiazol-5-yl]-2-(trifluoromethyl)nicotinamide] |  | 83 |  |  |  |  | 100 | 100 | 100 |  | 
5 | N#Cc1c(-c2ccccc2Cl)nsc1NC(=O)c1cccnc1Cl [Compound I-2-6, 2-Chloro-N-[3-(2-chlorophenyl)-4-cyano-1,2-thiazol-5-yl]nicotinamide] |  | 83 |  | 100 |  |  |  | 70 |  | 100 | 
6 | N#Cc1sc(NC(=O)c2cccnc2C(F)(F)F)nc1-c1ccccc1C(F)(F)F [Compound I-3-2, N-{5-Cyano-4-[2-(trifluoromethyl)phenyl]-1,3-thiazol-2-yl}-2-(trifluoromethyl)nicotinamide] |  | 100 | 100 | 100 |  |  | 100 | 100 | 100 |  | 100
7 | O=C(Nc1nc(-c2c(F)cccc2F)no1)c1cccnc1C(F)(F)F [Compound I-1-1, N-[3-(2,6-Difluorophenyl)-1,2,4-oxadiazol-5-yl]-2-(trifluoromethyl)nicotinamide] |  | 100 | 100 | 100 |  |  |  | 70 | 100 |  | 80
